According to patent publication US20040228889A1, “Use of N-arylmethylene ethylenediaminetriacetates, N-arylmethylene iminodiacetated or N,N'-diarylmethylene ethylenediamineacetates as doners of NO” (L'OREAL S.A., priority 2003, published 2004):

Key:
[1] = biological target: T1, inducible NO synthase (NOS2) (Homo sapiens, UniProt P35228); assay: screening test of the modulation of induction of NOS2 by normal human keratinocytes (nitrite and nitrate measurement); type: cell-based; conditions: for % inhibition: cytokine-induced normal human keratinocytes, nitrites and nitrates
T1 construct: endogenous in cells; host or cells: normal human keratinocytes (primary culture), induced with interferon-gamma and interleukin 1-beta
T1 sequence (P35228 whole entry): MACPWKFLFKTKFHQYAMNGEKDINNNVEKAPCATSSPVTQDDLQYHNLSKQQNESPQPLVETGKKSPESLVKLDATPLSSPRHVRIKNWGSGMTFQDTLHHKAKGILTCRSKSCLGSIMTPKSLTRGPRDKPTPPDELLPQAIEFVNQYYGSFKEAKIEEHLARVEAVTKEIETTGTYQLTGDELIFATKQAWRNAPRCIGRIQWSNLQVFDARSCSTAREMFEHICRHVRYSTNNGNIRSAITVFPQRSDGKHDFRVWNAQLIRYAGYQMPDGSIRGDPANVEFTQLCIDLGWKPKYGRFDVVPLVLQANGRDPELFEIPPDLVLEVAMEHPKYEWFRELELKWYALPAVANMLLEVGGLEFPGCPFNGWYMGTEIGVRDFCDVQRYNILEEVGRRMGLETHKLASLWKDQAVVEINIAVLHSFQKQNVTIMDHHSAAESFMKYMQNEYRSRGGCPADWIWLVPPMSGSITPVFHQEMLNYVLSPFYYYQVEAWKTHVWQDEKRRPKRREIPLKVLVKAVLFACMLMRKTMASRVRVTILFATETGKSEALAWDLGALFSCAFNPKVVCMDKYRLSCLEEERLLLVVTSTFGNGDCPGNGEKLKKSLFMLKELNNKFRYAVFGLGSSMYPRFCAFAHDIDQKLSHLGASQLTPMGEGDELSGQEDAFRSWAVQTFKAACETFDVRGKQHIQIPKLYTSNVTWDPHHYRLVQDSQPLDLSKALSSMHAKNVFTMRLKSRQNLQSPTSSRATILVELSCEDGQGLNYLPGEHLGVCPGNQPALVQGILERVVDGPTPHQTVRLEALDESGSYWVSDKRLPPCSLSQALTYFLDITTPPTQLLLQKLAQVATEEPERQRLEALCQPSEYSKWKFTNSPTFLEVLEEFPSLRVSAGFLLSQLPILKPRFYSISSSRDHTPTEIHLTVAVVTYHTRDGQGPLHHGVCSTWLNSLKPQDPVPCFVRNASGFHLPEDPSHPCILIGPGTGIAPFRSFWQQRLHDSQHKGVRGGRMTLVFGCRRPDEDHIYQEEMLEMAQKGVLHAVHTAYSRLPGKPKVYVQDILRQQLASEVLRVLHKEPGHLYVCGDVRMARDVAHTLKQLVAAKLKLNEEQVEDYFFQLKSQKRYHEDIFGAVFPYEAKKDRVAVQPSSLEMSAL
Description: The activity of N,N′-bis-(3,4,5-trimethoxybenzyl) ethylenediamine-diacetic acid on the inducible NO synthase was evaluated in the assay described by Heck et al. (J.B.C., vol. 267, No. 30, 21277-21280, 25 Oct. 1992), a screening test of the modulation of induction of NOS2 by normal human keratinocytes. The objective of this test is, briefly, to evaluate the concentration of nitrate and nitrite after stimulation of the NO-synthase 2.
The test is carried out on a culture of normal human keratinocytes, derived from samples taken. The induction of the inducible NO synthase (NOS2) was caused by the addition of a combination of several cytokines to the culture medium. The product tested was applied at three concentrations varying from 10 to 1000 μM.
The product tested was classed in one of the following two categories: inhibitor (I) or donor (D) of NO (nitric oxide) according to its capacity to diminish or increase, respectively, the quantity of nitrites and nitrates produced compared to the control signal […].
The following controls were introduced in the test:
A: positive control (induction of the enzyme): mixtures of interferon-γ(1000 u/ml) and interleukin 1-β (100 u/ml)
In order to determine the activity of the test product the quantity of stable NO reaction products (nitrites and nitrates) is measured with the aid of the “nitric colorimetric assay” kit sold by the Boehringer company under catalogue number 1756.28.
N,N′-bis(3,4,5-trimethoxybenzyl) ethylenediamine-diacetic acid was tested at concentrations of 100 μM, 500 μM and 1000 μM in ethanol.

[2] = tested on: normal human keratinocytes; assay: cytotoxicity, % diminution of the signal compared with the control; type: cell-based; conditions: concentration equal to or lower than 500 μM
Text: Moreover, the cytotoxicity was expressed as % diminution of the signal compared with the control. A product was considered not to be very cytotoxic from 0-20%, acceptable up to 40% and not retained for values >40%.

COc1cc(CN(CCN(CC(=O)O)Cc2cc(OC)c(OC)c(OC)c2)CC(=O)O)cc(OC)c1OC [N,N′-bis-(3,4,5-trimethoxybenzyl) ethylenediamine-diacetic acid]
classification as inhibitor (I) or donor (D) of NO ([1]; quantity of nitrites and nitrates produced compared to the control signal): NO donor effect | % inhibition ([1]; test product 100 μM in ethanol): 29% | % inhibition ([1]; test product 500 μM in ethanol): 70% | % inhibition ([1]; test product 1000 μM in ethanol): 84% | cytotoxicity [2]: not toxic
